From US6716833B2, “Acetylenic α-amino acid-based sulfonamide hydroxamic acid tace inhibitors” (priority 1999, dated 2004)
Where a name gives a salt, the structure may show the parent alone. Read-outs that look alike come from different tables or passages of the source.

Legend:
Format in all cases: biochemical
[1] = molecular target: TNF-α converting enzyme (TACE) (Homo sapiens, UniProt P78536); assay: TACE inhibition (fluorescent peptidyl substrate); conditions: read-out: TACE IC50
MMP-9 = MMP-9 (Homo sapiens, UniProt P14780); assay: MMP-9 inhibition (thiopeptide or fluorescent peptide substrate); conditions: read-out: MMP-9 IC50
Chain of MMP-9 (P14780 94-707): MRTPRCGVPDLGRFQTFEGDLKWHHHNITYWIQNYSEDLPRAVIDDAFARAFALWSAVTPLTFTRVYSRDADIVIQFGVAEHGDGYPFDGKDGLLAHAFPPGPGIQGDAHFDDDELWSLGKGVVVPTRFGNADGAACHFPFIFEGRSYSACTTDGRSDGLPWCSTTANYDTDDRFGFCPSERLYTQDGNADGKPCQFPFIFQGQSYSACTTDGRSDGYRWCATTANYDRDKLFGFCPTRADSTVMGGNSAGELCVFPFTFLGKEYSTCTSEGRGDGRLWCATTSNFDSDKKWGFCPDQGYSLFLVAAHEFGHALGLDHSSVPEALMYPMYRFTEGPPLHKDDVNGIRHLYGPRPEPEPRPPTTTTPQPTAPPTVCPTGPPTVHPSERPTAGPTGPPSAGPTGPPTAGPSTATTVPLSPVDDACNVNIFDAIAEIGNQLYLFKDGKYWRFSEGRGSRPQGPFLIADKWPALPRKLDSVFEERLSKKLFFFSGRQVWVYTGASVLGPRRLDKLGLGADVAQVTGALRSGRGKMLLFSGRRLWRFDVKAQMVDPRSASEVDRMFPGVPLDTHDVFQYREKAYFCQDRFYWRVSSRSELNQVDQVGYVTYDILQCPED
Method: The enzyme activity is measured by the rate of the color increase. The thiopeptide substrate is made up fresh as a 20 mM stock in 100% DMSO and the DTNB is dissolved in 100% DMSO as a 100 mM stock and stored in the dark at room temperature. Both the substrate and DTNB are diluted together to 1 mM with substrate buffer (50 mM HEPES pH 7.5, 5 mM CaCl2) before use. The stock of enzyme is diluted with buffer (50 mM HEPES, pH 7.5, 5 mM CaCl2, 0.02% Brij) to the desired final concentration.
Alternatively, a fluorescent peptide substrate is used. In this test procedure, the peptide substrate contains a fluorescent group and a quenching group. Upon cleavage of the substrate by an MMP, the fluorescence that is generated is quantitated on the fluorescence plate reader. The assay is run in HCBC assay buffer (50 mM HEPES, pH 7.0, 5 mM Ca^+2, 0.02% Brij, 0.5% Cysteine), with human recombinant MMP-1, MMP-9, or MMP-13. […] For the assay, substrate and enzymes are diluted in HCBC buffer to the desired concentrations. Compounds are added to the 96 well plate containing enzyme and the reaction is started by the addition of substrate.
For either the thiopeptide or fluorescent peptide test procedures, the slope of the line is calculated and represents the reaction rate. The linearity of the reaction rate is confirmed (r^2>0.85). The mean (x±sem) of the control rate is calculated and compared for statistical significance (p<0.05) with drug-treated rates using Dunnett's multiple comparison test.

MMP-13 = MMP-13 (Homo sapiens, UniProt P45452); assay: MMP-13 inhibition (thiopeptide or fluorescent peptide substrate); conditions: read-out: MMP-13 IC50
MMP-1 = molecular target: T1, MMP-1 (Homo sapiens, UniProt P03956); assay: MMP-1 inhibition (thiopeptide or fluorescent peptide substrate); conditions: read-out: MMP-1 IC50
T1 sequence (P03956 100-469): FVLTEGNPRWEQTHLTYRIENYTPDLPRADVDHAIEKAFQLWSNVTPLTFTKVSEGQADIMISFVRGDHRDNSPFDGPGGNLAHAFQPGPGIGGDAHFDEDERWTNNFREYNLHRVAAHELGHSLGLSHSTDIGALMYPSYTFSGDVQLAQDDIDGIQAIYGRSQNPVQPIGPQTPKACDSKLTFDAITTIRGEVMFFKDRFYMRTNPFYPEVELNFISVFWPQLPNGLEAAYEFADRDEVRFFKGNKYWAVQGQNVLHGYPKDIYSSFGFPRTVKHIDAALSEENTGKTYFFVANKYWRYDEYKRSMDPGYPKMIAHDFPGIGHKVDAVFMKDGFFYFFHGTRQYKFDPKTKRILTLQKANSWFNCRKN

Chain of TNF-α converting enzyme (TACE) (P78536 215-824, species assumed): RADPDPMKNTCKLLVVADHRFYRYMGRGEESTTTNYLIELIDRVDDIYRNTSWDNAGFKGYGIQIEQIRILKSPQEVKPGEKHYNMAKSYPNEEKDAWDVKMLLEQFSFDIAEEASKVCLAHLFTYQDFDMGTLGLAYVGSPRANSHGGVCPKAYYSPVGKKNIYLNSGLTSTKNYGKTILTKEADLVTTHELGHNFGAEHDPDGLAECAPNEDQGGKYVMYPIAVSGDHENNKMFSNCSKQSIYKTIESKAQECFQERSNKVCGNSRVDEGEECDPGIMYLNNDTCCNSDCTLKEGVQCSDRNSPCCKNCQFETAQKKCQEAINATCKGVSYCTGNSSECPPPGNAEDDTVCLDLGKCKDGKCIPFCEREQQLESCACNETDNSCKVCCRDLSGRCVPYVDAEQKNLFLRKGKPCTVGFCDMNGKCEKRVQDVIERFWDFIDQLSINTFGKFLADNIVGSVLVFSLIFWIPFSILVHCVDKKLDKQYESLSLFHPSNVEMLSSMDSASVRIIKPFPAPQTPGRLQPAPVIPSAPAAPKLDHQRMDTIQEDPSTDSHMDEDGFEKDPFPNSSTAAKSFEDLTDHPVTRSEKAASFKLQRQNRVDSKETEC

| SMILES | IC50 [1] [nM] | IC50 (MMP-9) [nM] | IC50 (MMP-13) [nM] | IC50 (MMP-1) [nM] | other results |
| --- | --- | --- | --- | --- | --- |
| CC#CCOc1ccc(S(=O)(=O)N(C)C(C(=O)NO)c2ccc(OCCN3CCCC3=O)cc2)cc1 (centres unmarked) [Example 184, 2-[{[4-(2-Butynyloxy)phenyl]sulfonyl}(methyl)amino]-N-hydroxy-2-{4-[2-(2-oxo-1-pyrrolidinyl)ethoxy]phenyl}acetamide] | 35 | 55 | 11 | 434 | – |
| CC#CCOc1ccc(S(=O)(=O)NC(C(=O)NO)c2ccc(O)cc2)cc1 (centres unmarked) [Example 176, 2-({[4-(2-Butynyloxy)phenyl]sulfonyl}amino)-N-hydroxy-2-(4-hydroxyphenyl)acetamide] | 4 | 898 | 103 | ~10000 | – |
| CCCCC#CCOc1ccc(S(=O)(=O)N2CCSC(C)(C)C2C(=O)NO)cc1 (centres unmarked) [Example 40, 4-(4-hept-2-ynyloxy-Benzenesulfonyl)-2,2-dimethyl-thiomorpholine-3-carboxylic Acid Hydroxyamide] | – | – | – | – | IC50 ([1]; Table 9): 23 nM; IC50 (MMP-9; Table 9): 7.8 nM; IC50 (MMP-13; Table 9): 6.6 nM; IC50 (MMP-1; Table 9): 29 nM |
| CC#CCOc1ccc(S(=O)(=O)N(CCCN2CCOCC2)C(C(=O)NO)C(C)C)cc1 (centres unmarked) [Example 119, 2-{{[4-(2-Butynyloxy)phenyl]sulfonyl}[3-(4-morpholinyl)propyl]amino}-N-hydroxy-3-methylbutanamide] | 124 | 94 | 46 | 129 | – |
| CC#CCOc1ccc(S(=O)(=O)N(C)CC(=O)NO)cn1 [Example 131, 2-[(6-but-2-ynyloxy-Pyridine-3-sulfonyl)-methyl-amino]-N-hydroxy-acetamide] | 29 | 402 | 428 | ~10000 | – |
| CC#CCOc1ccc(S(=O)(=O)N(C)C(C(=O)NO)c2ccc(OCCNC(=O)OC(C)(C)C)cc2)cc1 (centres unmarked) [Example 180, tert-Butyl 2-(4-[1-[{[4-(2-Butynyloxy)phenyl]sulfonyl}(methyl)amino]-2-(hydroxyamino)-2-oxoethyl]phenoxy}ethylcarbamate] | 265 | 34 | 9.3 | 599 | – |
| CC1(C)SCCN(S(=O)(=O)c2ccc(OCC#CCOCc3ccccc3)cc2)C1C(=O)NO (centres unmarked) [Example 247, 4-[(4-{[4-(Benzyloxy)-2-butynyl]oxy}phenyl)sulfonyl]-N-hydroxy-2,2-dimethyl-3-thiomorpholine Carboxamide] | – | – | – | – | IC50 ([1]; Table 10): 160 nM; IC50 (MMP-9; Table 10): 108 nM; IC50 (MMP-13; Table 10): 2.5 nM; IC50 (MMP-1; Table 10): 53 nM |
| CC#CCOc1ccc(S(=O)(=O)N(C)C(C(=O)NO)c2ccc(OCCCN)cc2)cc1 (centres unmarked) [Example 188, 2-[4-(3-Aminopropoxy)phenyl]-2-[{[4-(2-butynyloxy)phenyl]sulfonyl}(methyl)amino]-N-hydroxyacetamide] | 25 | 48 | 41 | 469 | – |
| CC#CCOc1ccc(S(=O)(=O)N2CCN(C(=O)CC)CC2C(=O)NO)cc1 (centres unmarked) [Example 225, 1-(4-but-2-ynyloxy-Benzenesulfonyl)-4-propionyl-piperazine-2-carboxylic Acid Hydroxyamide] | 17 | 727 | 230 | 1000 | – |
| CC#CCOc1ccc(S(=O)(=O)N(CC(C)C)C(C(=O)NO)C(C)C)cc1 (centres unmarked) [Example 113, 2-[(4-but-2-ynyloxy-Benzenesulfonyl)-isobutyl-amino]-N-hydroxy-3-methyl-butyramide] | 107 | 918 | 309 | 299 | – |
| CC#CCOc1ccc(S(=O)(=O)N2CCN(C(=O)N3CCCC3)CC2C(=O)NO)cc1 (centres unmarked) [Example 217, 1-(4-but-2-ynyloxy-Benzenesulfonyl)-4-(pyrrolidine-1-carbonyl)-piperazine-2-carboxylic Acid Hydroxyamide] | 28 | 209 | 83 | 1250 | – |
| CC#CCOc1ccc(S(=O)(=O)N2CCCN(C(=O)c3ccccc3)CC2C(=O)NO)cc1 (centres unmarked) [Example 49, 4-Benzoyl-1-(4-but-2-ynyloxy-benzenesulfonyl)-[1,4]diazepane-2-carboxylic Acid Hydroxyamide] | 17 | 75 | 65 | 362 | – |
| CC#CCOc1ccc(S(=O)(=O)N(CCN2CCOCC2)CC(=O)NO)cc1 [Example 124, 2-[{[4-(but-2-ynyloxy)Phenyl]sulfonyl}(2-morpholin-4-ylethyl)amino]-N-hydroxyacetamide Hydrochloride] | 13 | 211 | 54 | 1770 | – |
| CC#CCOc1ccc(S(=O)(=O)N2CCN(C(=O)C(C)(CO)CO)CC2C(=O)NO)cc1 (centres unmarked) [Example 232, 1-{[4-(2-Butynyloxy)phenyl]sulfonyl}-N-hydroxy-4-[3-hydroxy-2-(hydroxymethyl)-2-methylpropanoyl]-2-piperazinecarboxamide] | 44 | 785 | 289 | 1680 | – |
| CC1(C)SCCN(S(=O)(=O)c2ccc(OCC#CCCCO)cc2)C1C(=O)NO (centres unmarked) [Example 249, N-Hydroxy-4-({4-[(6-hydroxy-2-hexynyl)oxy]phenyl}sulfonyl)-2,2-dimethyl-3-thiomorpholine Carboxamide] | – | – | – | – | IC50 ([1]; Table 10): 40 nM; IC50 (MMP-9; Table 10): 377 nM; IC50 (MMP-13; Table 10): 86 nM; IC50 (MMP-1; Table 10): 159 nM |
| CC#CCOc1ccc(S(=O)(=O)N(CCCCN2CCN(C)CC2)C(C(=O)NO)C(C)C)cc1 (centres unmarked) [Example 122, 2-{{[4-(2-Butynyloxy)phenyl]sulfonyl}[4-(4-methyl-1-piperazinyl)butyl]amino}-N-hydroxy-3-methylbutanamide] | 128 | 135 | 50 | 86 | – |
| CC#CCOc1ccc(S(=O)(=O)N(CCCCN(CC)CC)C(C(=O)NO)C(C)C)cc1 (centres unmarked) [Example 121, 2-{{[4-(2-Butynyloxy)phenyl]sulfonyl}[4-(diethylamino)butyl]amino}-N-hydroxy-3-methylbutanamide] | 177 | 256 | 114 | 120 | – |
| CC#CCOc1ccc(S(=O)(=O)N(C)C(C(=O)NO)c2ccc(OCCCNC(=O)OC(C)(C)C)cc2)cc1 (centres unmarked) [Example 187, tert-Butyl 3-{4-[1-[{[4-(2-Butynyloxy)phenyl]sulfonyl}(methyl)amino]-2-(hydroxyamino)-2-oxoethyl]phenoxy}propylcarbamate] | 199 | 46 | 13 | 910 | – |
| CC#CCOc1ccc(S(=O)(=O)N(C)C(C(=O)NO)c2ccc(OC)cc2)cc1 (centres unmarked) [Example 178, 2-[{[4-(2-Butynyloxy)phenyl]sulfonyl}(methyl)amino]-N-hydroxy-2-(4-methoxyphenyl)acetamide] | 23 | 43 | 14 | 482 | – |
| CC#CCOc1ccc(S(=O)(=O)N(C)C(C(=O)NO)C(C)(C)SCCC)cc1 (centres unmarked) [Example 151, 2-[(4-but-2-ynyloxy-Benenesulfonyl)-methyl-amino]-N-hydroxy-3-methyl-3-propylsulfanyl-butyramide] | 31 | 31 | 14 | 24 | – |
| CC#CCOc1ccc(S(=O)(=O)N(C)C(C(=O)NO)c2ccc(OCCN3CCNCC3)cc2)cc1 (centres unmarked) [Example 186, 2-[{[4-(2-butynyloxy)phenyl]sulfonyl}(methyl)amino]-N-hydroxy-2-{4-[2-(1-piperazinyl)ethoxy]phenyl}acetamide] | 31 | 32 | 21 | 568 | – |
| CC#CCOc1ccc(S(=O)(=O)N(CCCN2CCN(C)CC2)C(C(=O)NO)C(C)C)cc1 (centres unmarked) [Example 120, 2-{{[4-(2-Butynyloxy)phenyl]sulfonyl}[3-(4-methyl-1-piperazinyl)propyl]amino}-N-hydroxy-3-methylbutanamide Hydrochloride] | 149 | 211 | 161 | 111 | – |
| CC(C)(C)OC(=O)NCCC#CCOc1ccc(S(=O)(=O)N2CCSC(C)(C)C2C(=O)NO)cc1 (centres unmarked) [Example 245, tert-Butyl 5-[4-({3-[(Hydroxyamino)carbonyl]-2,2-dimethyl-4-thiomorpholinyl}sulfonyl)phenoxy]-3-pentynylcarbamate] | – | – | – | – | IC50 ([1]; Table 10): 112 nM; IC50 (MMP-9; Table 10): 2380 nM; IC50 (MMP-13; Table 10): 6.6 nM; IC50 (MMP-1; Table 10): 300 nM |
| CC#CCOc1ccc(S(=O)(=O)N2CCN(C(=O)N3CCOCC3)CC2C(=O)NO)cc1 (centres unmarked) [Example 215, 1-(4-but-2-ynyloxy-Benzenesulfonyl)-4-(morpholine-4-carbonyl)-piperazine-2-carboxylic Acid Hydroxyamide] | 35 | 60 | 39 | 695 | – |
| CC#CCOc1ccc(S(=O)(=O)N2CC[S+]([O-])C(C)(C)C2C(=O)NO)cc1 (single isomer, unassigned) [Example 255] | – | – | – | – | IC50 ([1]; Table 9): 24 nM; IC50 (MMP-9; Table 9): 29 nM; IC50 (MMP-13; Table 9): 8.7 nM; IC50 (MMP-1; Table 9): 46 nM |
| CC#CCOc1ccc(S(=O)(=O)N(C)C(C(=O)NO)C2CCCCC2)cc1 (centres unmarked) [Example 115, 2-[(4-but-2-ynyloxy-Benzenesulfonyl)-methyl-amino]-2-cyclohexyl-N-hydroxy-acetamide] | 31 | 14 | 6.6 | 94 | – |
